Assay [1] deals with T1, human noradrenaline transporter (hNET) (Homo sapiens, UniProt P23975).
T1 construct: expressed in transfected cells; host or cells: COS-7 cells (ATCC), transient transfection with metafectene
The assay is described as follows: biochemical. Format: binding.

Assay [2] has as its target T1, human noradrenaline transporter (hNET). The assay is described as follows: cell-based.

T1 sequence (P23975 whole entry): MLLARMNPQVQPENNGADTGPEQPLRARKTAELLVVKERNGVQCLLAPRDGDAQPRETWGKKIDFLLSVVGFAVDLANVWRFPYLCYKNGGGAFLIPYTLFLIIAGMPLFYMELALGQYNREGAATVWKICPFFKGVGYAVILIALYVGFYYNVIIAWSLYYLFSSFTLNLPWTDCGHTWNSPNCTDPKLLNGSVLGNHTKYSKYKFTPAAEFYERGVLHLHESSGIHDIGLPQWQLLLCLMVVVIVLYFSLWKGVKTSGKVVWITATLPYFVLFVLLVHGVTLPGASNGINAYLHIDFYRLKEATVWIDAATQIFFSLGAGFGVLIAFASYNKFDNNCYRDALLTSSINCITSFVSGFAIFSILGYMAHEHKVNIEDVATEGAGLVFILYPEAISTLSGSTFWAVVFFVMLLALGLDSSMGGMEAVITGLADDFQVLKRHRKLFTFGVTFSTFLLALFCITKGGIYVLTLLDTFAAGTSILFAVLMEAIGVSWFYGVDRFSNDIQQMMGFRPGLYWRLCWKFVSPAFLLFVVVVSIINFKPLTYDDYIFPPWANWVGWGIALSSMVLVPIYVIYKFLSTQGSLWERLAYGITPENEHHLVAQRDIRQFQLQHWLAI

Turning to `CC(C)C[C@@H]1NC(=O)[C@H](CCCCN)NC(=O)[C@H](Cc2ccc(O)cc2)NC(=O)CNC(=O)[C@@H]2CSSC[C@H](NC1=O)C(=O)N[C@@H](Cc1c[nH]cn1)C(=O)N1C[C@H](O)C[C@H]1C(=O)N[C@@H](C(N)=O)CSSC[C@H](NC(=O)[C@@H](NC(=O)CNC(=O)[C@@H]1CCC(=O)N1)C(C)C)C(=O)N2` [SEQ ID NO. 5, Xaa1 Gly Val Cys Cys Gly Tyr Lys Leu Cys His Xaa3 Xaa5], the IC50 in assay [1] was 4.17 µM; in assay [2], 0.575 µM.

`COc1ccc(C[C@@H]2NC(=O)CNC(=O)[C@@H]3CSSC[C@H](NC(=O)[C@H](CC(C)C)NC(=O)[C@H](CCCCN)NC2=O)C(=O)N[C@@H](Cc2c[nH]cn2)C(=O)N2C[C@H](O)C[C@H]2C(=O)N[C@H](C(N)=O)CSSC[C@H](NC(=O)[C@@H](NC(=O)CNC(=O)[C@@H]2CCC(=O)N2)C(C)C)C(=O)N3)cc1` [SEQ ID NO. 6, Xaa1 Gly Val Cys Cys Gly Xaa4 Lys Leu Cys His Xaa3 Cys]: the IC50 in assay [1] is 1.15 µM; in assay [2] it was 0.214 µM.

On to `CC(C)C[C@@H]1NC(=O)[C@H](CCCCN)NC(=O)[C@H](Cc2ccc(O)cc2)NC(=O)CNC(=O)[C@@H]2CSSC[C@H](NC1=O)C(=O)N[C@@H](Cc1c[nH]cn1)C(=O)N1C[C@H](O)C[C@H]1C(=O)N[C@H](C(=O)O)CSSC[C@H](NC(=O)[C@@H](NC(=O)CNC(=O)[C@@H]1CCC(=O)N1)C(C)C)C(=O)N2` [SEQ ID NO. 9, Xaa1 Gly Val Cys Cys Gly Tyr Lys Leu Cys His Xaa3 Cys —OH], for which the IC50 in assay [1] is 8.32 µM.

Broadly, the IC50 is the concentration at which inhibition is half-maximal. Low values mean greater potency, high ones weaker potency.
